The source made the active and inactive calls. The calls are words filed in the database; no cut-off is given here.
Experiments:
[1] = biological target: T1, Fibroblast growth factor 1/Fibroblast growth factor receptor 2 (Homo sapiens) (UniProt P05230+P21802); assay: Inhibition of FGF1/FGFR2 D2 domain interaction in human MCF7 cells assessed as decrease in cell proliferation at 0.1 to 1 uM by WST-1 assay; format: cell-based; conditions: dose 0.1-1 µM
MCF7 = assay: Cytotoxicity against FGF1-stimulated human MCF7 cells cultured in serum-starved media assessed as reduction in cell viability incubated for 48 hrs by WST-1 assay; format: functional, cell-based; conditions: MCF7, 48 h
[2] = biological target: T1, Fibroblast growth factor 1/Fibroblast growth factor receptor 2 (Homo sapiens); assay: Inhibition of FGF1/FGFR2 D2 domain interaction in human MCF7 cells assessed as decrease in cell count at 0.1 to 1 uM by WST-1 assay; format: cell-based; conditions: dose 0.1-1 µM

T1 sequence (P05230 whole entry, looked up, the tested form may be a part): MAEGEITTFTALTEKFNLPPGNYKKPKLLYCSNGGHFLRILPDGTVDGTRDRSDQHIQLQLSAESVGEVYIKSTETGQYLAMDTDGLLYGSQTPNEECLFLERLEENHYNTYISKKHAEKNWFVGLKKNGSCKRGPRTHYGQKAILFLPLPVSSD
T1 sequence (P21802 whole entry, looked up, the tested form may be a part): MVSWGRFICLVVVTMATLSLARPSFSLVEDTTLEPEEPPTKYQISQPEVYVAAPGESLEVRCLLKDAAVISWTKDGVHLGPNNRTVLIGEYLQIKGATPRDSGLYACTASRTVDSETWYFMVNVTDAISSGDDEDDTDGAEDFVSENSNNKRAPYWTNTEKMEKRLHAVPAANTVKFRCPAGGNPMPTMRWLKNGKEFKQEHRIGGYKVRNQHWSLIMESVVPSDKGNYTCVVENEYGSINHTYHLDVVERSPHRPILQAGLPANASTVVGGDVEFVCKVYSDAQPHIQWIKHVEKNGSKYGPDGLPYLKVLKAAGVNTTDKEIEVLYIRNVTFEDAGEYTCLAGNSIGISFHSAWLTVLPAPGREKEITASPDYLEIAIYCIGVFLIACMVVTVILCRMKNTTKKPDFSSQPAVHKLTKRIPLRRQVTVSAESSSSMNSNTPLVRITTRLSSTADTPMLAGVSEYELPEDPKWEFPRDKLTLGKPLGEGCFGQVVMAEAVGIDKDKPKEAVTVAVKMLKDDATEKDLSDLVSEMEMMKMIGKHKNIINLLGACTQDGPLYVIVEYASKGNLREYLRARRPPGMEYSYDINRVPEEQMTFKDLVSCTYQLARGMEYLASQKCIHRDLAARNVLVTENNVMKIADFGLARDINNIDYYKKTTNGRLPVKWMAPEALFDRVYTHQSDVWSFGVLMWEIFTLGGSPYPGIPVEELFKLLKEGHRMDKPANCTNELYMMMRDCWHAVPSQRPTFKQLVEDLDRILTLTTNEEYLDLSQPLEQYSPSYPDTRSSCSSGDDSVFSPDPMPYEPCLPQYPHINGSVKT

SMILES: Cc1ccc(C(=O)Nc2ccc(S(=O)(=O)O)c3cc(S(=O)(=O)O)cc(S(=O)(=O)O)c23)cc1NC(=O)c1cccc(NC(=O)Nc2cccc(C(=O)Nc3cc(C(=O)Nc4ccc(S(=O)(=O)O)c5cc(S(=O)(=O)O)cc(S(=O)(=O)O)c45)ccc3C)c2)c1 [SURAMIN]
- inhibition [1]: Active
- IC50 (MCF7): 154 µM

SMILES: O=C(Nc1ccc(C(=O)Nc2ccc(C(=O)Nc3cccc4cc(S(=O)(=O)O)ccc34)cc2)cc1)Nc1ccc(C(=O)Nc2ccc(C(=O)Nc3cccc4cc(S(=O)(=O)O)ccc34)cc2)cc1
- inhibition [2]: Active
- inhibition [1]: Active
- IC50 (MCF7): 619 µM

Reference: ChEMBL document CHEMBL4706537, “Suramin derivatives play an important role in blocking the interaction between FGF1 and FGFRD2 to inhibit cell proliferation” (Eur J Med Chem, 2020)
